Laboratory results reported in patent US7022739B2, “Substituted 1-aminobutan-3-ol compounds” (Gruenenthal GmbH, priority 2000, dated 2006).

Experiments:
[1] = system: gabapentin binding site; assay: Gabapentin binding assay (displacement of gabapentin from its binding site)
Procedure: Gabapentin is used in the binding assay in order to check the binding and affinities of the selected compounds. The affinity of the compounds according to the invention is measured via the displacement of gabapentin from its binding site.

[2] = system: phenylquinone-induced writhing; assay: Phenylquinone-induced writhing test in mice; format: in vivo; settings: male NMRI mice, groups of 10

Structure (SMILES)	% Inhibition Gabapentin, 10 μmole [1] [%]	Reacting Animals/Control Animals (Writhing) ([2]; 10 mg/kg, iv)	further results
COc1cccc(C2CCCC(CN(C)C)C2(O)c2ccc(Cl)cc2)c1 (stereo not shown) [Example 45, 1-(4-chlorophenyl)-2-dimethylaminomethyl-6-(3-methoxyphenyl)-cyclohexanol]	58	–	–
COc1cccc(C2CCCC(CN(C)C)C2(O)c2cccc(Cl)c2)c1 (stereo not shown) [Example 75, 1-(3-chlorophenyl)-2-dimethylaminomethyl-6-(3-methoxyphenyl)-cyclohexanol]	54	–	–
COc1cccc(C2CCCC(CN(C)C)C2(O)c2ccc(C)cc2)c1 (stereo not shown) [Example 76, 2-dimethylaminomethyl-6-(3-methoxyphenyl)-1-p-tolylcyclohexanol]	53	–	–
CN(C)CC1CCCC(c2cccc(O)c2)C1(O)c1ccc(F)cc1 (stereo not shown) [Example 81, 3-[3-dimethylaminomethyl-2-(4-fluorophenyl)-2-hydroxycyclohexyl]-phenol]	48	–	–
CN(C)CC1CCCC(c2cccc(O)c2)C1(O)c1ccccc1 (stereo not shown) [Example 82, 3-(3-dimethylaminomethyl-2-hydroxy-2-phenylcyclohexyl)-phenol]	55	–	–
COc1cccc(C2CCCC(CN(C)C)C2(O)c2ccc(Cl)cc2)c1 (stereo not shown) [Example 85, 1-(4-chlorophenyl)-2-dimethylaminomethyl-6-(3-methoxyphenyl)-cyclohexanol]	–	–	Reacting Animals/Control Animals (Writhing) ([2]; 46.4 mg/kg, iv): 10/10 (46.4 mg/kg; iv)
COc1cccc(C2(O)C(CN(C)C)CCCC2C2CCCCC2)c1 (stereo not shown) [Example 86, 3-dimethylaminomethyl-2-(3-methoxyphenyl)-bicyclohexyl-2-ol]	–	–	Reacting Animals/Control Animals (Writhing) ([2]; 21.5 mg/kg, po): 3/10 (21.5 mg/kg; po)
CN(C)CC1CCCC(Cc2ccccc2)C1(O)c1ccc(C(F)(F)F)cc1 (stereo not shown) [Example 87, 2-benzyl-6-dimethylaminomethyl-1-(4-trifluoromethylphenyl)-cyclohexanol]	–	2/10 (10 mg/kg; iv)	–
CN(C)CC1CCCC(Cc2ccccc2)C1(O)c1cccc(O)c1 (stereo not shown) [Example 88, 3-(2-benzyl-6-dimethylaminomethyl-1-hydroxycyclohexyl)-phenol]	–	2/10 (10 mg/kg; iv)	–
CN(C)CC1CCCC(C(C)(C)C)C1(O)c1cccc(O)c1 (stereo not shown) [Example 89, 3-(2-tert.-butyl-6-dimethylaminomethyl-1-hydroxycyclohexyl)-phenol]	–	3/10 (10 mg/kg; iv)	–
